Test results taken from patent publication US6011060A, “Chiral phenyldihydrofuranones as PDE-IV inhibitors” (Schering Aktiengesellschaft, priority 1996, dated 2000).
pKi: −log10 of the molar value.

Molecular target: radiolabeled Rolipram of rat brain homogenates
Assay: displacement of radiolabeled Rolipram in rat brain homogenates, in vitro (Eur. J. Pharmacol. 127, 105-115 (1986))
Type: binding
Settings: 3H-rolipram tracer, IC50 converted: Ki = IC50/[1+(L/KD)]
Method: The action on the central nervous system is determined in vitro by measuring the displacement capacity of radiolabeled Rolipram of rat brain homogenates (Eur. J. Pharmacol., Vol. 127, 105-115 (1986)). The IC50 values (that concentration in which 50% inhibiting action occurs) were converted into inhibition constant Ki, which is calculated according to the formula below: […]
in which L means the concentration of the radioactive tracer and KD means the dissociation constant of the ^3 H-rolipram bond, which is determined separately.

pKi	SMILES
9.55	COc1ccc([C@]2(C)CCC(=O)O2)cc1OC1CCCC1 [cyclopentyl, (S)-(-)-enantiomer, (S)-(-)-5-(3-cyclopentyloxy-4-methoxyphenyl)-5-methyl-dihydro-2-furanone]
9.30	COc1ccc(C2(C)CCC(=O)O2)cc1OC1CCCC1 (racemic) [cyclopentyl, Racemate, (R,S)-5-(3-cyclopentyloxy-4-methoxyphenyl)-5-methyl-dihydro-2-furanone]
9.42	COc1ccc(C2(C)CCC(=O)O2)cc1OC1CCC1 (racemic) [cyclobutyl, Racemate, (R,S)-5-(3-cyclobutyloxy-4-methoxyphenyl)-5-methyl-dihydro-2-furanone]
8.55	COc1ccc([C@@]2(C)CCC(=O)O2)cc1OC1CCCC1 [cyclopentyl, (R)-(+)-enantiomer, (R)-(+)-5-(3-cyclopentyloxy-4-methoxyphenyl)-5-methyl-dihydro-2-furanone]
9.70	COc1ccc([C@]2(C)CCC(=O)O2)cc1OC1CCC1 [cyclobutyl, (S)-(-)-enantiomer, (S)-(-)-5-(3-cyclobutyloxy-4-methoxyphenyl)-5-methyl-dihydro-2-furanone]
8.72	COc1ccc([C@@]2(C)CCC(=O)O2)cc1OC1CCC1 [cyclobutyl, (R)-(+)-enantiomer, (R)-(+)-5-(3-cyclobutyloxy-4-methoxyphenyl)-5-methyl-dihydro-2-furanone]

Second part, the molecule before the results:

SMILES	pKi
COc1ccc([C@]2(C)CCC(=O)O2)cc1OCC1CC1 [cyclopropylmethyl, (S)-(-)-enantiomer, (S)-(-)-5-(3-cyclopropylmethoxy-4-methoxyphenyl)-5-methyl-dihydro-2-furanone]	9.89
COc1ccc([C@@]2(C)CCC(=O)O2)cc1OCC(C)C [isobutyl, (R)-(+)-enantiomer, (R)-(+)-5-(3-isobutyloxy-4-methoxyphenyl)-5-methyl-dihydro-2-furanone]	8.64
COc1ccc([C@]2(C)CCC(=O)O2)cc1OCC(C)C [isobutyl, (S)-(-)-enantiomer, (S)-(-)-5-(3-isobutyloxy-4-methoxyphenyl)-5-methyl-dihydro-2-furanone]	9.60
COc1ccc(C2(C)CCC(=O)O2)cc1OCC1CC1 (racemic) [cyclopropylmethyl, Racemate, (R,S)-5-(3-cyclopropylmethoxy-4-methoxyphenyl)-5-methyl-dihydro-2-furanone]	9.68
CCCOc1cc([C@@]2(C)CCC(=O)O2)ccc1OC [propyl, (R)-(+)-enantiomer, (R)-(+)-5-(4-methoxy-3-propoxyphenyl)-5-methyl-dihydro-2-furanone]	8.14
CCCOc1cc(C2(C)CCC(=O)O2)ccc1OC (racemic) [propyl, Racemate, (R,S)-5-(4-methoxy-3-propoxyphenyl)-5-methyl-dihydro-2-furanone]	9.13
COc1ccc([C@@]2(C)CCC(=O)O2)cc1OCC1CC1 [cyclopropylmethyl, (R)-(+)-enantiomer, (R)-(+)-5-(3-cyclopropylmethoxy-4-methoxyphenyl)-5-methyl-dihydro-2-furanone]	8.66
CCCOc1cc([C@]2(C)CCC(=O)O2)ccc1OC [propyl, (S)-(-)-enantiomer, (S)-(-)-5-(4-methoxy-3-propoxyphenyl)-5-methyl-dihydro-2-furanone]	9.33
COc1ccc(C2(C)CCC(=O)O2)cc1OCC(C)C (racemic) [isobutyl, Racemate, (R,S)-5-(3-isobutyloxy-4-methoxyphenyl)-5-methyl-dihydro-2-furanone]	9.32
